Source: the supplement of paper PMC10307832

How the values were obtained:
Experiment in all cases: relative viability (nuclei count vs DMSO), 5 days (fraction); higher = more cells survive
Everolimus + AZD7762 = compound: CO[C@H]1C[C@@H]2CC[C@@H](C)[C@@](O)(O2)C(=O)C(=O)N2CCCC[C@H]2C(=O)O[C@H]([C@H](C)C[C@@H]2CC[C@@H](OCCO)[C@H](OC)C2)CC(=O)[C@H](C)/C=C(\C)[C@@H](O)[C@@H](OC)C(=O)[C@H](C)C[C@H](C)/C=C/C=C/C=C/1C [Everolimus] + NC(=O)Nc1cc(-c2cccc(F)c2)sc1C(=O)N[C@H]1CCCNC1 [AZD7762] (partner 0.2 µM)
Summary of the method: (§1)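 Lung cancer cell lines were seeded in 1536-well plates and dosed by pin tool the next day, with either a single drug or a fixed anchor-drug dose combined with five library-drug doses (not always all listed) spaced in √10 steps. Five days later, one step fixed the cells and stained their nuclei (final 0.05% Triton X-100, 1% formaldehyde, 1 ug/ml Hoechst), and nuclei were counted on 4× images. Relative viability is the nuclei count in treated wells divided by the count in vehicle wells, and each value is the median of duplicate plates.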

Everolimus + OSI-027 = compound: CO[C@H]1C[C@@H]2CC[C@@H](C)[C@@](O)(O2)C(=O)C(=O)N2CCCC[C@H]2C(=O)O[C@H]([C@H](C)C[C@@H]2CC[C@@H](OCCO)[C@H](OC)C2)CC(=O)[C@H](C)/C=C(\C)[C@@H](O)[C@@H](OC)C(=O)[C@H](C)C[C@H](C)/C=C/C=C/C=C/1C [Everolimus] + COc1cccc2cc(-c3nc([C@H]4CC[C@H](C(=O)O)CC4)n4ncnc(N)c34)[nH]c12 [OSI-027] (partner 0.5 µM)
Summary of the method: as §1

Everolimus + Pemetrexed = compound: CO[C@H]1C[C@@H]2CC[C@@H](C)[C@@](O)(O2)C(=O)C(=O)N2CCCC[C@H]2C(=O)O[C@H]([C@H](C)C[C@@H]2CC[C@@H](OCCO)[C@H](OC)C2)CC(=O)[C@H](C)/C=C(\C)[C@@H](O)[C@@H](OC)C(=O)[C@H](C)C[C@H](C)/C=C/C=C/C=C/1C [Everolimus] + Nc1nc2[nH]cc(CCc3ccc(C(=O)N[C@@H](CCC(=O)O)C(=O)O)cc3)c2c(=O)[nH]1 [Pemetrexed] (partner 0.2 µM)
Summary of the method: as §1

Everolimus + Foretinib = compound: CO[C@H]1C[C@@H]2CC[C@@H](C)[C@@](O)(O2)C(=O)C(=O)N2CCCC[C@H]2C(=O)O[C@H]([C@H](C)C[C@@H]2CC[C@@H](OCCO)[C@H](OC)C2)CC(=O)[C@H](C)/C=C(\C)[C@@H](O)[C@@H](OC)C(=O)[C@H](C)C[C@H](C)/C=C/C=C/C=C/1C [Everolimus] + COc1cc2c(Oc3ccc(NC(=O)C4(C(=O)Nc5ccc(F)cc5)CC4)cc3F)ccnc2cc1OCCCN1CCOCC1 [Foretinib] (partner 0.25 µM)
Summary of the method: as §1

Cell Line	relative viability (Everolimus + AZD7762; first compound 0.01 µM)	relative viability (Everolimus + AZD7762; first compound 0.03162 µM)	relative viability (Everolimus + AZD7762; first compound 0.1 µM)	relative viability (Everolimus + AZD7762; first compound 0.3162 µM)	relative viability (Everolimus + AZD7762; first compound 1 µM)	relative viability (Everolimus + OSI-027; first compound 0.01 µM)	relative viability (Everolimus + OSI-027; first compound 0.03162 µM)	relative viability (Everolimus + OSI-027; first compound 0.1 µM)	relative viability (Everolimus + OSI-027; first compound 0.3162 µM)	relative viability (Everolimus + OSI-027; first compound 1 µM)	relative viability (Everolimus + Pemetrexed; first compound 0.01 µM)	relative viability (Everolimus + Pemetrexed; first compound 0.03162 µM)	relative viability (Everolimus + Pemetrexed; first compound 0.1 µM)	relative viability (Everolimus + Pemetrexed; first compound 0.3162 µM)	relative viability (Everolimus + Pemetrexed; first compound 1 µM)	relative viability (Everolimus + Foretinib; first compound 0.01 µM)	relative viability (Everolimus + Foretinib; first compound 0.03162 µM)	relative viability (Everolimus + Foretinib; first compound 0.1 µM)	relative viability (Everolimus + Foretinib; first compound 0.3162 µM)	relative viability (Everolimus + Foretinib; first compound 1 µM)
NCI-H1793	0.242	0.244	0.259	0.21	0.197	0.236	0.189	0.185	0.21	0.185	0.373	0.332	0.319	0.351	0.251	0.293	0.314	0.259	0.293	0.291
HCC-827	0.188	0.164	0.185	0.193	0.163	0.624	0.613	0.596	0.482	0.47	0.22	0.251	0.194	0.275	0.243	0.929	0.982	0.906	0.828	0.771
HCC-78	0.455	0.427	0.361	0.553	0.384	0.348	0.332	0.572	0.311	0.347	0.902	0.929	0.873	0.914	0.93	0.496	0.477	0.447	0.51	0.391
NCI-H2085	0.808	0.753	0.45	0.654	0.481	0.457	0.454	0.257	0.476	0.438	0.655	0.652	0.493	0.624	0.63	0.812	0.584	0.617	0.777	0.695
PC-14	0.201	0.204	0.171	0.145	0.163	0.567	0.482	0.418	0.455	0.455	0.176	0.186	0.181	0.184	0.184	0.986	0.968	0.928	0.756	0.854
A-427	0.498	0.527	0.587	0.446	0.595	0.449	0.457	0.333	0.398	0.432	0.757	0.856	0.799	0.788	0.891	0.742	0.624	0.639	0.684	0.757
H3255	0.74	0.562	0.595	0.632	0.509	0.531	0.426	0.381	0.402	0.339	0.459	0.458	0.478	0.449	0.455	0.572	0.621	0.458	0.294	0.565
NCI-H1734	0.336	0.365	0.291	0.283	0.313	0.408	0.411	0.365	0.417	0.423	0.407	0.435	0.461	0.385	0.406	0.495	0.529	0.479	0.467	0.541
NCI-H1993	0.461	0.505	0.371	0.472	0.439	0.566	0.554	0.53	0.529	0.553	0.516	0.457	0.482	0.508	0.547	0.554	0.592	0.667	0.628	0.627
NCI-H1437	1.1	1.11	1.1	0.997	0.875	0.379	0.363	0.344	0.365	0.487	0.296	0.307	0.294	0.29	0.251	1.29	1.18	1.21	1.23	1.15
201T	0.466	0.476	0.407	0.421	0.47	0.574	0.549	0.519	0.499	0.509	0.365	0.383	0.32	0.307	0.317	0.996	0.913	0.895	0.795	0.865
NCI-H358	0.358	0.361	0.396	0.18	0.325	0.347	0.337	0.336	0.34	0.378	0.173	0.162	0.162	0.158	0.153	0.432	0.45	0.496	0.388	0.432
ChaGo-K-1	0.799	0.917	0.743	0.769	0.866	0.467	0.445	0.443	0.504	0.495	0.247	0.265	0.26	0.244	0.249	0.903	0.85	0.884	0.761	0.805
LOU-NH91	0.651	0.654	0.621	0.645	0.647	0.529	0.57	0.531	0.524	0.516	0.477	0.467	0.394	0.418	0.485	0.853	0.793	0.712	0.746	0.691
